# Data: US12383511B2, “Osteogenic agents and uses thereof” (GoldPorp Pharma Limited, priority 2022, dated 2025)
# Key:
# MC3T3-E1 osteoblasts [1] = test: Alkaline phosphatase (ALP) activity assay in MC3T3-E1 osteoblasts; type: cell-based; details: for cellular alkaline phosphatase (ALP) enzyme activities: 0.5, […], 5 μM; for concentration at which increases in ALP activities were already evident / concentration of maximum increase in ALP activities: at 24 and 48 h after treatment
# Procedure: MC3T3-E1 (passage 4-10) was maintained in Minimal Essential Media (MEM) supplemented with 10% FBS, 1 mM Sodium Pyruvate and 1% 100 ug/ml penicillin-streptomycin (100 U/ml). All reagents are from GIBCO Life Technologies.
# MC3T3-E1 cells were seeded at 1×10^5 cells per well in 24-well plate. […] After treatment, cells were washed twice with PBS and lysed with buffer contains 50 mM Tris pH7.4 and 0.1% Triton X-100. After 3 freeze-thaw cycles, 40 ul of cell lysate was mixed with 50 ul of 2× Assay buffer (2-Amino-2methyl-1-propanol, pH 10.4 with 4 mM MgCl2) and 10 ul of 0.1M 4-Nitrophenyl phosphate. Incubated in 37° C. and recorded at OD410.
# MC3T3-E1 osteoblasts [2] = test: Cell viability / cell number NBB assay; type: cell-based; details: for cell number (NBB assay): 0.625 to 10 μM; for cell viability (NBB assay): higher concentrations (25-100 μM)
# Procedure: MC3T3-E1 cells were seeded at 7×10^3 cells/well in 96-well plates for 2 days. […] After treatment, cells were fixed with 3% formalin and stained with NBB solution (0.05% NBB with 0.1 M sodium acetate and 9% acetic acid) at room temperature. Twenty four hours later, staining solution was removed and distilled water was added to remove free dye. Then, 100 ul of 50 mM […] was added to dissolve bound dye and recorded absorbance at 590 nm.
# [3] = tested on: MC3T3-E1 osteoblast cells; test: Osteoblast mineralization assay (Alizarin Red staining); type: cell-based; details: for Alizarin Red staining (calcium deposition) in cell layers: […] or 5 μM in osteoblast mineralization medium, day 14, compared with control
# Procedure: MC3T3-E1 cells were seeded at 1×10^5 cells per well in 24-well plates. […] […] Cells were washed twice with PBS and fixed with 10% formalin for 1 hour. Fixed cell was washed twice with distilled water and stained with 2% Alizarin Red S solution (pH 4.1) in the dark for 1 hour. Stain solution was removed and washed 4 times with distilled water.
# MC3T3-E1 osteoblast = test: mRNA expression of osteogenesis-related molecules by real-time PCR; type: cell-based; details: for AFT6 mRNA expression / ALP mRNA expression / ATF3 mRNA expression / Axin2 mRNA expression / BMP2 mRNA expression / BMP7 mRNA expression / BSP mRNA expression / COL1A1 mRNA expression / Fzd1 mRNA expression / Fzd2 mRNA expression / Fzd5 mRNA expression / LRP5 mRNA expression / OCN mRNA expression / OPN mRNA expression / OSN mRNA expression / OSX mRNA expression / Runx2 mRNA expression / VDR mRNA expression / Wnt3A mRNA expression / Wnt5A mRNA expression / Wnt7B mRNA expression / Wnt11 mRNA expression: BMP2 30 ng/ml, ASC 400 μM + β-GP 5 mM, F1 5 μM, F4 5 μM, relative to DMSO control, normalized to GAPDH; for levels of osteocalcin (OCN) and osteoportin (OPN) mRNA: treatment of cells with F1 or F4
# Procedure: MC3T3-E1 cells were seeded in 6-well plates at 1×10^5 cells per well for 2 days. […] Total RNA was isolated at Day 2 and Day 4 with Trizol® reagent, 1 ug of total RNA was subjected to reverse transcription/cDNA synthesis using Superscript III first-strand synthesis system (Life Technologies).
# Equal amount of cDNA generated from reverse transcription reactions were subjected to real-time PCR with SYBR® Green PCR Master Mix and primers for osteoblast differentiation markers. Primers used included: […]
# Osteoblast differentiation markers genes expression were analyzed by ABI prism 7900HT Sequence Detection System and the relative level of transcript expression was quantified by ΔΔCt method.
# p38 = test: Western blot of phosphorylated p38 and total p38; type: cell-based; details: 5 μM, 15 min and 30 min, MC3T3-E1 osteoblasts
# Procedure: MC3T3-E1 were lysed with 20 mM Tris pH8.0, 137 mM NaCl, 2 mM EDTA, 1% Triton X-100 and 10% Glycerol with protease inhibitor cocktail (Roche, complete). Protein concentration was determined by Bradford Protein Assay (Bio-Rad) and equal amount of proteins (30 μg) was resolved by SDS-PAGE and transferred onto PVDF membrane. The membrane was blocked with 3% BSA in Tris-buffered saline containing 0.1% Tween 20 and incubated with primary antibody (1:1000) overnight at 4° C. then incubated with HRP-linked secondary antibody for 1 h. Chemiluminescence signals were detected using enhanced chemiluminescence reagents (GE Healthcare) on X-Ray films (Fujifilm).
# The levels of phosphorylated p38 and total p38 were determined by immunoblotting experiments.
# [4] = tested on: estrogen responsive gene elements (ERE); test: pERE-Luc reporter gene assay in MC3T3-E1; type: cell-based; details: 0.5-10 μM, MC3T3-E1
# Procedure: MC3T3-E1 were seeded at 9.0×10^4 per well in 24-well plates. Twenty-four hours after cell seeding, cells were transiently transfected with 500 ng pERE-Luc (contains three repeats of estrogen-response element) by lipofectamine 2000 (Life Technologies) according to manufacturers' instruction (lipofectamine:DNA=3:1).
# MCF7 cells = test: BrdU incorporation proliferation assay; type: cell-based
# Text: The effect of F compounds on estrogen dependent cancer cells was investigated (FIG. 8). […] The fold increase of MCF7 proliferation was similar to that induced by estradiol treatment.
# MDA-MB-231 cells = test: BrdU incorporation proliferation assay; type: cell-based; details: 5 μM
# Estrogen receptor beta = Estrogen receptor beta (Homo sapiens, UniProt Q92731); test: biochemical
# Sequence of Estrogen receptor beta (Q92731 whole entry, species assumed): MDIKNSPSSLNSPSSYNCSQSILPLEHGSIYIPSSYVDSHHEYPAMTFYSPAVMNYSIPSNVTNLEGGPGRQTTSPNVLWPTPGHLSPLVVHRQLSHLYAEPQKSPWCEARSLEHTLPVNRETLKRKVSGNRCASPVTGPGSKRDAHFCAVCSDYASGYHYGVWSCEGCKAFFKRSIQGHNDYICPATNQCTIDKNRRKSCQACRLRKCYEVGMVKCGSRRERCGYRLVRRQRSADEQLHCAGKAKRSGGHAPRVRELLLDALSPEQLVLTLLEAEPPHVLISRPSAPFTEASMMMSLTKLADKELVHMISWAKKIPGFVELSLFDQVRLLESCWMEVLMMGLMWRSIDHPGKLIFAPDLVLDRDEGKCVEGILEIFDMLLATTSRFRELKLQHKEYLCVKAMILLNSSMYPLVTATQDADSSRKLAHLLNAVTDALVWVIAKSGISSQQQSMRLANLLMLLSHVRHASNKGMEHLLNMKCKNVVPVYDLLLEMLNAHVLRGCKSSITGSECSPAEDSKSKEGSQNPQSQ
compound,measurement,setting,value
C=Cc1cc(O)c(C)c2c1-c1ccc(O)c(C)c1CC2 [F1],cellular alkaline phosphatase (ALP) enzyme activities,MC3T3-E1 osteoblasts [1],increased the cellular alkaline phosphatase (ALP) enzyme activities in a concentration-dependent manner
same,concentration at which increases in ALP activities were already evident,MC3T3-E1 osteoblasts [1],0.5 µM
same,concentration of maximum increase in ALP activities,MC3T3-E1 osteoblasts [1],5 µM
same,cell number (NBB assay),MC3T3-E1 osteoblasts [2],slightly increased the cell number
same,cell viability (NBB assay),MC3T3-E1 osteoblasts [2],significant loss of cell viability
same,calcium deposition at higher vs lower concentration,[3]; 5 μM compared with […],More calcium deposition
same,Alizarin Red staining (calcium deposition) in cell layers,[3],significantly enhanced
same,AFT6 mRNA expression,MC3T3-E1 osteoblast; D 2,1.5 fold
same,ALP mRNA expression,MC3T3-E1 osteoblast; D 2,1.8 fold
same,ATF3 mRNA expression,MC3T3-E1 osteoblast; D 2,0.8 fold
same,Axin2 mRNA expression,MC3T3-E1 osteoblast; D 2,0.9 fold
same,BMP2 mRNA expression,MC3T3-E1 osteoblast; D 2,1.2 fold
same,BMP7 mRNA expression,MC3T3-E1 osteoblast; D 2,1.6 fold
same,BSP mRNA expression,MC3T3-E1 osteoblast; D 2,2.1 fold
same,COL1A1 mRNA expression,MC3T3-E1 osteoblast; D 2,0.7 fold
same,Fzd1 mRNA expression,MC3T3-E1 osteoblast; D 2,3.0 fold
same,Fzd2 mRNA expression,MC3T3-E1 osteoblast; D 2,1.0 fold
same,Fzd5 mRNA expression,MC3T3-E1 osteoblast; D 2,0.8 fold
same,LRP5 mRNA expression,MC3T3-E1 osteoblast; D 2,0.8 fold
same,OCN mRNA expression,MC3T3-E1 osteoblast; D 2,29 fold
same,OPN mRNA expression,MC3T3-E1 osteoblast; D 2,1.4 fold
same,OSN mRNA expression,MC3T3-E1 osteoblast; D 2,0.7 fold
same,OSX mRNA expression,MC3T3-E1 osteoblast; D 2,0.6 fold
same,Runx2 mRNA expression,MC3T3-E1 osteoblast; D 2,1.1 fold
same,VDR mRNA expression,MC3T3-E1 osteoblast; D 2,0.9 fold
same,Wnt3A mRNA expression,MC3T3-E1 osteoblast; D 2,0.9 fold
same,Wnt5A mRNA expression,MC3T3-E1 osteoblast; D 2,0.8 fold
same,Wnt7B mRNA expression,MC3T3-E1 osteoblast; D 2,0.8 fold
same,Wnt11 mRNA expression,MC3T3-E1 osteoblast; D 2,1.1 fold
same,AFT6 mRNA expression,MC3T3-E1 osteoblast; D 4,1.0 fold
same,ALP mRNA expression,MC3T3-E1 osteoblast; D 4,2.9 fold
same,ATF3 mRNA expression,MC3T3-E1 osteoblast; D 4,1.0 fold
same,Axin2 mRNA expression,MC3T3-E1 osteoblast; D 4,1.0 fold
same,BMP2 mRNA expression,MC3T3-E1 osteoblast; D 4,0.7 fold
same,BMP7 mRNA expression,MC3T3-E1 osteoblast; D 4,1.1 fold
same,BSP mRNA expression,MC3T3-E1 osteoblast; D 4,1.3 fold
same,COL1A1 mRNA expression,MC3T3-E1 osteoblast; D 4,0.9 fold
same,Fzd1 mRNA expression,MC3T3-E1 osteoblast; D 4,2.6 fold
same,Fzd2 mRNA expression,MC3T3-E1 osteoblast; D 4,0.7 fold
same,Fzd5 mRNA expression,MC3T3-E1 osteoblast; D 4,0.6 fold
same,LRP5 mRNA expression,MC3T3-E1 osteoblast; D 4,0.6 fold
same,OCN mRNA expression,MC3T3-E1 osteoblast; D 4,11 fold
same,OPN mRNA expression,MC3T3-E1 osteoblast; D 4,1.8 fold
same,OSN mRNA expression,MC3T3-E1 osteoblast; D 4,1.6 fold
same,OSX mRNA expression,MC3T3-E1 osteoblast; D 4,0.5 fold
same,Runx2 mRNA expression,MC3T3-E1 osteoblast; D 4,1.2 fold
same,VDR mRNA expression,MC3T3-E1 osteoblast; D 4,0.5 fold
same,Wnt3A mRNA expression,MC3T3-E1 osteoblast; D 4,2.8 fold
same,Wnt5A mRNA expression,MC3T3-E1 osteoblast; D 4,0.6 fold
same,Wnt7B mRNA expression,MC3T3-E1 osteoblast; D 4,1.1 fold
same,Wnt11 mRNA expression,MC3T3-E1 osteoblast; D 4,0.6 fold
same,levels of osteocalcin (OCN) and osteoportin (OPN) mRNA,MC3T3-E1 osteoblast,markedly increased
"C=Cc1cc(O)cc2c1-c1ccc(O)c(C)c1CC2 [F4, effusol]",cellular alkaline phosphatase (ALP) enzyme activities,MC3T3-E1 osteoblasts [1],increased the cellular alkaline phosphatase (ALP) enzyme activities in a concentration-dependent manner
same,concentration at which increases in ALP activities were already evident,MC3T3-E1 osteoblasts [1],0.5 µM
same,concentration of maximum increase in ALP activities,MC3T3-E1 osteoblasts [1],5 µM
same,cell number (NBB assay),MC3T3-E1 osteoblasts [2],slightly increased the cell number
same,cell viability (NBB assay),MC3T3-E1 osteoblasts [2],significant loss of cell viability
same,Alizarin Red staining (calcium deposition) in cell layers,[3],significantly enhanced
same,mRNA of Wnt pathway members Wnt3A and frizzled 1,MC3T3-E1 osteoblast,increases
same,AFT6 mRNA expression,MC3T3-E1 osteoblast; D 2,1.5 fold
same,ALP mRNA expression,MC3T3-E1 osteoblast; D 2,2.1 fold
same,ATF3 mRNA expression,MC3T3-E1 osteoblast; D 2,0.7 fold
same,Axin2 mRNA expression,MC3T3-E1 osteoblast; D 2,1.1 fold
same,BMP2 mRNA expression,MC3T3-E1 osteoblast; D 2,1.0 fold
same,BMP7 mRNA expression,MC3T3-E1 osteoblast; D 2,1.0 fold
same,BSP mRNA expression,MC3T3-E1 osteoblast; D 2,1.6 fold
same,COL1A1 mRNA expression,MC3T3-E1 osteoblast; D 2,1.0 fold
same,Fzd1 mRNA expression,MC3T3-E1 osteoblast; D 2,3.3 fold
same,Fzd2 mRNA expression,MC3T3-E1 osteoblast; D 2,0.8 fold
same,Fzd5 mRNA expression,MC3T3-E1 osteoblast; D 2,0.7 fold
same,LRP5 mRNA expression,MC3T3-E1 osteoblast; D 2,0.9 fold
same,OCN mRNA expression,MC3T3-E1 osteoblast; D 2,17 fold
same,OPN mRNA expression,MC3T3-E1 osteoblast; D 2,1.5 fold
same,OSN mRNA expression,MC3T3-E1 osteoblast; D 2,0.9 fold
same,OSX mRNA expression,MC3T3-E1 osteoblast; D 2,0.6 fold
same,Runx2 mRNA expression,MC3T3-E1 osteoblast; D 2,1.3 fold
same,VDR mRNA expression,MC3T3-E1 osteoblast; D 2,2.1 fold
same,Wnt3A mRNA expression,MC3T3-E1 osteoblast; D 2,0.9 fold
same,Wnt5A mRNA expression,MC3T3-E1 osteoblast; D 2,1.0 fold
same,Wnt7B mRNA expression,MC3T3-E1 osteoblast; D 2,0.6 fold
same,Wnt11 mRNA expression,MC3T3-E1 osteoblast; D 2,0.8 fold
same,AFT6 mRNA expression,MC3T3-E1 osteoblast; D 4,2.1 fold
same,ALP mRNA expression,MC3T3-E1 osteoblast; D 4,4.6 fold
same,ATF3 mRNA expression,MC3T3-E1 osteoblast; D 4,0.9 fold
same,Axin2 mRNA expression,MC3T3-E1 osteoblast; D 4,1.1 fold
same,BMP2 mRNA expression,MC3T3-E1 osteoblast; D 4,0.9 fold
same,BMP7 mRNA expression,MC3T3-E1 osteoblast; D 4,1.3 fold
same,BSP mRNA expression,MC3T3-E1 osteoblast; D 4,1.2 fold
same,COL1A1 mRNA expression,MC3T3-E1 osteoblast; D 4,1.2 fold
same,Fzd1 mRNA expression,MC3T3-E1 osteoblast; D 4,5.8 fold
same,Fzd2 mRNA expression,MC3T3-E1 osteoblast; D 4,0.8 fold
same,Fzd5 mRNA expression,MC3T3-E1 osteoblast; D 4,0.8 fold
same,LRP5 mRNA expression,MC3T3-E1 osteoblast; D 4,1.0 fold
same,OCN mRNA expression,MC3T3-E1 osteoblast; D 4,9 fold
same,OPN mRNA expression,MC3T3-E1 osteoblast; D 4,2.7 fold
same,OSN mRNA expression,MC3T3-E1 osteoblast; D 4,2 fold
same,OSX mRNA expression,MC3T3-E1 osteoblast; D 4,0.6 fold
same,Runx2 mRNA expression,MC3T3-E1 osteoblast; D 4,1.7 fold
same,VDR mRNA expression,MC3T3-E1 osteoblast; D 4,1.6 fold
same,Wnt3A mRNA expression,MC3T3-E1 osteoblast; D 4,1.9 fold
same,Wnt5A mRNA expression,MC3T3-E1 osteoblast; D 4,0.8 fold
same,Wnt7B mRNA expression,MC3T3-E1 osteoblast; D 4,0.1 fold
same,Wnt11 mRNA expression,MC3T3-E1 osteoblast; D 4,0.4 fold
same,levels of osteocalcin (OCN) and osteoportin (OPN) mRNA,MC3T3-E1 osteoblast,markedly increased
same,levels of phosphorylated p38,p38,increased levels of phosphorylated p38
same,transcriptional activity driven by estrogen responsive gene elements (ERE),[4],stimulated the transcriptional activity driven by estrogen responsive gene elements (ERE) in a dose-dependent manner
same,MCF7 cell proliferation induced by estradiol,MCF7 cells; 5 μM,significantly suppress
same,MCF7 cell proliferation,MCF7 cells; dose of 5 μM or higher,inhibited the proliferation
same,MCF7 cell proliferation,MCF7 cells; low dose of 0.3 μM,induced MCF7 cell proliferation
same,cell proliferation induced by 17beta-estradiol in MDA-MB-231 cells (ER negative),MDA-MB-231 cells,had no effect
same,IC50,Estrogen receptor beta,5.6 nM
